Experiment [1] has as its target Microtubule-associated protein tau (Homo sapiens, UniProt P10636). Briefly: Thio S Fluorometry Assay: The Thio S fluorometry assay as a primary screening method to identify tau protein aggregation inhibitors from our small molecule library. Aggregated tau fibrils were prepared in the presence of equimolar ratios of TauRD and heparin (10 μM each) in 20 mM Na-phosphate buffer, pH7.4. The reaction mixture was incubated at 37° C. with shaking (800-1000 rpm) for 22-24 hr (or for 3 days). In the Thio S inhibition assays, test compounds at 0, 0.1, 1, 10 and 100 μM were added at time 0 into the reaction containing TauRD and heparin. The same reaction mixture (+/− increasing concentrations of compounds) but without TauRD were also set up in parallel to serve as background controls. For all test compounds background fluorescence readings were very low, usually <5% of those of the TauRD-containing wells. For each compound, the IC50 was calculated using Prism version 5 software (GraphPad Software) by nonlinear regression [(Log [inhibitor] vs. normalized response; variable slope)].

For the next experiment, the target named is Alpha-synuclein (Homo sapiens, UniProt P37840). Briefly: In order to assess relative binding affinities of the test compounds for aggregated α-synuclein, competition assays were set up with a radiolabeled molecule already known to bind to α-synuclein fibrils and non-radiolabeled test compounds. In order to induce its aggregation, α-synuclein was incubated in phosphate buffered saline (PBS, pH 7.4) at 37° C. for three days with shaking (1,400 rpm). Competitive binding assays were carried out in 12×75 mm borosilicate glass tubes.

The text below walks through data of ChEMBL document CHEMBL3639274, “Compounds for the treatment of neurodegenerative diseases” (2015).

Each structure is given as a SMILES string.

Microtubule-associated protein tau, sequence (P10636 whole entry): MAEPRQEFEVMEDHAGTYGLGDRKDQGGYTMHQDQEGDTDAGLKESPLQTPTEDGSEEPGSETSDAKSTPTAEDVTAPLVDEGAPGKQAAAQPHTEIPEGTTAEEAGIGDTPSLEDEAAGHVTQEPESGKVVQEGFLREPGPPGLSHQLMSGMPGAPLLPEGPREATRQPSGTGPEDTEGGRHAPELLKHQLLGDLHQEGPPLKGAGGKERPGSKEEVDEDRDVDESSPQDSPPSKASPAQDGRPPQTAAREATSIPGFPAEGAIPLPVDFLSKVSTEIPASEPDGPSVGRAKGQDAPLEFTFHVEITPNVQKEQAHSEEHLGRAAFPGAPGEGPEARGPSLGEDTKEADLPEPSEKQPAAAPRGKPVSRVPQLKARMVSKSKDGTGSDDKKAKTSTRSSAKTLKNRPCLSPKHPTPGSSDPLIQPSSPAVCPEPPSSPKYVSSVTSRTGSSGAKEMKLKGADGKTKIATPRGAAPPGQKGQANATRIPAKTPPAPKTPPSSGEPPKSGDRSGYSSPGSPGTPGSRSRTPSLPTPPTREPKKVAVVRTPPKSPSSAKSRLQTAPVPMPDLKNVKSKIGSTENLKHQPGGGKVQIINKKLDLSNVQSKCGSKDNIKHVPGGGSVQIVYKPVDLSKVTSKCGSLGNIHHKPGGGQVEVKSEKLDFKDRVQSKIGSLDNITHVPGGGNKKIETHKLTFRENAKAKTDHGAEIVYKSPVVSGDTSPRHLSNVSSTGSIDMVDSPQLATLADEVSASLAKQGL

Usually IC50 stands for the concentration that inhibits the measured activity by half. Turning to `Oc1ccc(-c2cc(Br)c(-c3ccc(O)c(O)c3)s2)cc1O`, the IC50 in experiment [1] was 211 µM.

`O=[N+]([O-])c1cc(-c2ccc(O)c(O)c2)ccc1-c1ccc(O)c(O)c1`: the IC50 in experiment [1] was 24.7 µM.

In general, Ki refers to the equilibrium dissociation constant of an inhibitor or competing ligand from its target. The low end stands for a stronger hold on the target, the high end for a looser hold on the target. In the case of `Oc1ccc(-c2cnc(-c3ccc(O)c(O)c3)o2)cc1O`, in experiment [1], the IC50 was 117 µM. The affinity on Alpha-synuclein corresponds to a Ki of 0.659 µM.

As for `O=C(/C=C/c1ccc(O)c(O)c1)c1cc(O)c(O)cc1Br`, the IC50 in experiment [1] was 21.2 µM.

As for `Oc1ccc(-c2cn(-c3ccc(O)c(O)c3)nn2)cc1O`, the IC50 in experiment [1] is 34 µM.

For `Oc1ccc(-c2nsc(-c3ccc(O)c(O)c3)n2)cc1O`, the IC50 in experiment [1] was 10.2 µM.

For the molecule `Oc1ccc(-c2nnc(-c3ccc(O)c(O)c3)o2)cc1O`, in experiment [1], the IC50 is 3940 µM.

Take `Oc1ccc(-c2nc3cc(O)c(O)cc3o2)cc1O`: in experiment [1], the IC50 was 7.34 µM.

Turning to `CC(=O)N1N=C(c2ccc(O)c(O)c2)CC1c1ccc(O)c(O)c1` (stereo not drawn), in experiment [1], the IC50 was 78.5 µM.

In the case of `O=C(/C=C/c1cc(O)c(O)cc1Br)c1ccc(O)c(O)c1`, the IC50 in experiment [1] was 9.02 µM.

`O=C(/C=C/c1ccc(O)c(O)c1)c1ccc(O)c(O)c1`: the IC50 in experiment [1] is 21.4 µM.

Turning to `Oc1ccc(Cc2cc(O)c(O)cc2O)cc1O`, the IC50 in experiment [1] is 5.2 µM.
